Results: PubChem BioAssay AID1963420 (Molecular Pharmacology Branch, DTP, NCI, 2024)

System: 494315-158-R-J1-PDC complex spheroid growth, percent test/control
Assay: Anticancer human tumor 494315-158-R-J1-PDC patient-derived soft tissue sarcoma cell line growth inhibition [Asc]
Details: for IC50: curve of first compound; for viability, T/C: stronger effect = lower value
Outline: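 Stromal components (HUVEC and hMSC) are co-assembled with the cancer cells into multicellular spheroids. Drugs are then added singly or paired, at concentrations falling by half-log increments from a clinically achievable maximum, capped at 10 microM without known Cmax.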
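Further: compound exposure lasted seven days after spheroids formed for three days.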

Cc1nc(N2CCC3(CC2)COC(C)C3N)c(CO)nc1Sc1ccnc(N)c1Cl (stereo not given) + CNC(C)C(=O)NC1CN(S(=O)(=O)c2cccc(S(=O)(=O)N3CCC4CCC(C(=O)NC(c5ccccc5)c5ccccc5)N4C(=O)C(NC(=O)C(C)NC)C3)c2)CCC2CCC(C(=O)NC(c3ccccc3)c3ccccc3)N2C1=O
IC50 (second compound 0.01 µM): > 3000 nM
IC50 (second compound 0.0316 µM): > 3000 nM
IC50 (second compound 0.1 µM): 941 nM
IC50 (second compound 0.316 µM): < 9.49 nM
IC50 (second compound 1 µM): < 9.49 nM
viability, T/C (second compound 0.01 µM, first compound 0.00949 µM): 72.2%
viability, T/C (second compound 0.01 µM, first compound 0.03 µM): 59.6%
viability, T/C (second compound 0.01 µM, first compound 0.0949 µM): 64.1%
viability, T/C (second compound 0.01 µM, first compound 0.3 µM): 60.8%
viability, T/C (second compound 0.01 µM, first compound 0.949 µM): 62.7%
viability, T/C (second compound 0.01 µM, first compound 3 µM): 52.1%
viability, T/C (second compound 0.0316 µM, first compound 0.00949 µM): 60.7%
viability, T/C (second compound 0.0316 µM, first compound 0.03 µM): 69.7%
viability, T/C (second compound 0.0316 µM, first compound 0.0949 µM): 64.3%
viability, T/C (second compound 0.0316 µM, first compound 0.3 µM): 55.6%
viability, T/C (second compound 0.0316 µM, first compound 0.949 µM): 60.8%
viability, T/C (second compound 0.0316 µM, first compound 3 µM): 51%
viability, T/C (second compound 0.1 µM, first compound 0.00949 µM): 59.7%
viability, T/C (second compound 0.1 µM, first compound 0.03 µM): 55.6%
viability, T/C (second compound 0.1 µM, first compound 0.0949 µM): 50.6%
viability, T/C (second compound 0.1 µM, first compound 0.3 µM): 49.1%
viability, T/C (second compound 0.1 µM, first compound 0.949 µM): 59.1%
viability, T/C (second compound 0.1 µM, first compound 3 µM): 43.7%
viability, T/C (second compound 0.316 µM, first compound 0.00949 µM): 48.3%
viability, T/C (second compound 0.316 µM, first compound 0.03 µM): 48.6%
viability, T/C (second compound 0.316 µM, first compound 0.0949 µM): 47.2%
viability, T/C (second compound 0.316 µM, first compound 0.3 µM): 37.1%
viability, T/C (second compound 0.316 µM, first compound 0.949 µM): 42.8%
viability, T/C (second compound 0.316 µM, first compound 3 µM): 49.5%
viability, T/C (second compound 1 µM, first compound 0.00949 µM): 38.7%
viability, T/C (second compound 1 µM, first compound 0.03 µM): 44.2%
viability, T/C (second compound 1 µM, first compound 0.0949 µM): 44.3%
viability, T/C (second compound 1 µM, first compound 0.3 µM): 36.8%
viability, T/C (second compound 1 µM, first compound 0.949 µM): 40%
viability, T/C (second compound 1 µM, first compound 3 µM): 39.2%
